In PMC9844952 (Molecular Imaging and Biology, 2023):
Blank lines part the entries; values can stand above or below the compound they belong to.

Assays:
[1] = target: norepinephrine transporter (NET) (Homo sapiens, UniProt P23975); experiment: competitive 3H-NE uptake assay in SK-N-SH cells; type: cell-based; settings: read-out: IC50 of 3H-NE uptake; 60 min at 37°C, with pyrogallol and pargyline
human mGlu2 receptors = human mGlu2 receptors (Homo sapiens, UniProt Q14416); experiment: radioligand binding in transfected CHO-K1 cells; settings: glutamate 10 μM
mGluR2 = experiment: [11C]mG2P001 PET/CT in monkeys; type: in vivo, Cynomolgus fascicularis
NCI-H460 Fluc tumours [2] = experiment: PET of NCI-H460 Fluc tumours on chick CAM; type: in vivo, chicken; settings: for tumour uptake in CAM tumours: 60 min p.i.
NCI-H460 Fluc tumours [3] = type: in vivo, mice; settings: 60 min p.i.
S. aureus = experiment: in vitro binding to S. aureus
[4] = cited from earlier work
[5] = doxorubicin-induced chronic cardiotoxicity model; type: in vivo, C57BL/6J mice; settings: 8x3 mg/kg ip over 2 weeks
[6] = LogP of [99mTc]-DTPA-Collagen
Candida albicans 14053 = experiment: in vitro tracer uptake, yeast control
[7] = in vitro stability of [99mTc]-DTPA-Collagen; settings: 50h post-incubation, Radio-TLC
Escherichia coli 25922 = experiment: in vitro tracer uptake, Gram-negative control
Gram-positive bacteria = experiment: in vitro tracer uptake, Gram-positive bacteria
[8] = blood half-life and biodistribution of [99mTc]-DTPA-Collagen

Chain of human mGlu2 receptors (Q14416 19-872): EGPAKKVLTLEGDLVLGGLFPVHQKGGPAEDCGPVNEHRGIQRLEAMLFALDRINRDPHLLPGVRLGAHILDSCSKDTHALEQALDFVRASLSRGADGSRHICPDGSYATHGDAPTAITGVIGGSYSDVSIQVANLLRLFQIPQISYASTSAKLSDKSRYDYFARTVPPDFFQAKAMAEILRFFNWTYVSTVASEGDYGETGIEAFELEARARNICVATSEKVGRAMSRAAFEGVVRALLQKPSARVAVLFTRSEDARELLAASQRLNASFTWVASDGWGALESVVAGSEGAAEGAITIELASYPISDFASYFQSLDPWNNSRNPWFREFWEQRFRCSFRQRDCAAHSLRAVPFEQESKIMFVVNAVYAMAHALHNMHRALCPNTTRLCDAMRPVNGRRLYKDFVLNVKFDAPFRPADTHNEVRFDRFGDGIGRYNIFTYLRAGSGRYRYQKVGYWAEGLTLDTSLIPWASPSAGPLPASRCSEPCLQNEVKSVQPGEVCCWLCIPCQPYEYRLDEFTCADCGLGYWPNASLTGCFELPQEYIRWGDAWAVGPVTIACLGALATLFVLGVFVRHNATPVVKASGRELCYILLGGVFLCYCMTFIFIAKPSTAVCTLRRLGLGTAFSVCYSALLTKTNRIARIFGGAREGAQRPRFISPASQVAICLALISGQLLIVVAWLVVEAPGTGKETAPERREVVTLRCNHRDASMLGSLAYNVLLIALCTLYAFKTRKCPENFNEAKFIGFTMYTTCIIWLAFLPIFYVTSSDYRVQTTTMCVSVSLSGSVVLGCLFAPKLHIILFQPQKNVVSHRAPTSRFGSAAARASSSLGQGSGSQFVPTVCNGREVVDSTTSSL
Chain of norepinephrine transporter (NET) (P23975 whole entry): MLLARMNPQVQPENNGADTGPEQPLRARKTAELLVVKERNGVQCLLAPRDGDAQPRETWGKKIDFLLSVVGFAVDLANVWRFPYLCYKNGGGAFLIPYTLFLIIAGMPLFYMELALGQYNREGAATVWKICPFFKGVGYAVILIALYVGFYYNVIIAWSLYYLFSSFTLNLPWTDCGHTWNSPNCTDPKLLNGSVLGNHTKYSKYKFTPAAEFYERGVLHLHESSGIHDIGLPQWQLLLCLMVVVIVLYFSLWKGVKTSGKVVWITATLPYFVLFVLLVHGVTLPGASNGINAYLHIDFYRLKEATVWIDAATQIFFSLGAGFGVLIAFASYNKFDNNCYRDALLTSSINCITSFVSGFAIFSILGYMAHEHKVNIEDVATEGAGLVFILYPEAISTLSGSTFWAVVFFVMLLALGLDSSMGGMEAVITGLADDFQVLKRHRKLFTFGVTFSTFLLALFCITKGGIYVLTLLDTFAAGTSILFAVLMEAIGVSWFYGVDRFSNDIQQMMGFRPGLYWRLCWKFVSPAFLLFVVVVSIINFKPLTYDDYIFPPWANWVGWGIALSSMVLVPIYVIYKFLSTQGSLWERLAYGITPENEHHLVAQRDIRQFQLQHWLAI

IC50 [1]: 1750 ± 470 nM
Compound: N=C(N)NCc1cccc(I)c1 [MIBG, meta-iodobenzylguanidine]

maximum enhancement of specific binding vs control (human mGlu2 receptors): 2 fold
SUVmax in brain (mGluR2; at 15 min): > 3
Compound: Cn1c(CN2CCC(c3ccc(C(F)(F)F)cc3O[11CH3])CC2)nc2ncccc21 [[11C]mG2P001, 2-((4-(2-[^11C]methoxy-4-(trifluoromethyl)phenyl)piperidin-1-yl)methyl)-1-methyl-1H-imidazo[4,5-b]pyridine]
enhancement of accumulation (Logan VT) (mGluR2; representative study, pretreatment with 0.6 mg/kg mG2P001 iv): 33%

tumour uptake in CAM tumours (NCI-H460 Fluc tumours [2]): 10.0 ± 2.1 %ID/g
tumour-to-albumin ratio (NCI-H460 Fluc tumours [2]; i.v. ~3 MBq): 14.7
tumour uptake in mice (NCI-H460 Fluc tumours [3]): 6.0 ± 1.4 %ID/g
binding to S. aureus (S. aureus): 21±1%
Compound: O=C[C@H]([18F])[C@@H](O)[C@H](O)[C@H](O)CO [[18F]FDG, 18-fluorodeoxyglucose]

Compound: N[C@@H](C[C@H](CCC[18F])C(=O)O)C(=O)O [[18F]FSPG]
tumour uptake in CAM tumours (NCI-H460 Fluc tumours [2]): 14.0 ± 5.5 %ID/g
stable in human plasma [4]: up to 4 hours

Compound: COc1cccc2c1C(=O)c1c(O)c3c(c(O)c1C2=O)C[C@@](O)(C(=O)CO)C[C@@H]3O[C@H]1C[C@H](N)[C@H](O)[C@H](C)O1 [doxorubicin]
overall mortality rate [5]: < 20%

binding to S. aureus (S. aureus): 66±3%
Compound: [99mTc]-DTPA-Collagen: Rat Tail Collagen I conjugated to DTPA and labeled with 99mTc
LogP [6]: -3.69±0.58
in vitro uptake (Candida albicans 14053): 12±3%
stability [7]: higher than 90%
in vitro uptake (Escherichia coli 25922): 9±2%
in vitro uptake (Gram-positive bacteria): 63±7%
blood circulation half-life ([8]; blood extraction): 19 ± 2 min
liver uptake, ex vivo ([8]; rat, in vivo): 6.1±2.8 %ID/g
spleen uptake, ex vivo ([8]; rat, in vivo): 2.1±0.2 %ID/g
